{"source": "ChEMBL document CHEMBL1201862", "about": "“PubChem BioAssay data set” (2004)", "assay_in_all_cases": "growth of human tumour cells (NCI), 48 h", "key": {"UACC-62": {"tested_on": "UACC-62"}, "SF-268": {"tested_on": "SF-268"}, "DU-145": {"tested_on": "DU-145"}, "786-0": {"tested_on": "786-0"}, "COLO 205": {"tested_on": "COLO 205"}, "RXF 393": {"tested_on": "RXF 393"}, "UO-31": {"tested_on": "UO-31"}, "UACC-257": {"tested_on": "UACC-257"}, "MDA-MB-231": {"tested_on": "MDA-MB-231"}, "ACHN": {"tested_on": "ACHN"}, "NCI-H460": {"tested_on": "NCI-H460"}, "BT-549": {"tested_on": "BT-549"}, "CAKI-1": {"tested_on": "CAKI-1"}, "HT-29": {"tested_on": "HT-29"}, "SK-MEL-5": {"tested_on": "SK-MEL-5"}, "K562": {"tested_on": "K562"}, "SNB-19": {"tested_on": "SNB-19"}, "MDA-N": {"tested_on": "MDA-N"}, "A549": {"tested_on": "A549"}, "PC-3": {"tested_on": "PC-3"}, "SNB-75": {"tested_on": "SNB-75"}, "OVCAR-3": {"tested_on": "OVCAR-3"}, "T47D": {"tested_on": "T47D"}, "NCI-H226": {"tested_on": "NCI-H226"}, "LOX IMVI": {"tested_on": "LOX IMVI"}, "HCT-116": {"tested_on": "HCT-116"}, "SF-539": {"tested_on": "SF-539"}, "HOP-62": {"tested_on": "HOP-62"}, "EKVX": {"tested_on": "EKVX"}, "MCF7": {"tested_on": "MCF7"}, "HCC 2998": {"tested_on": "HCC 2998"}, "TK-10": {"tested_on": "TK-10"}, "NCI-H522": {"tested_on": "NCI-H522"}, "KM12": {"tested_on": "KM12"}, "RPMI-8226": {"tested_on": "RPMI-8226"}, "IGROV-1": {"tested_on": "IGROV-1"}, "OVCAR-4": {"tested_on": "OVCAR-4"}, "SR": {"tested_on": "SR"}, "M14": {"tested_on": "M14"}, "U-251": {"tested_on": "U-251"}, "HOP-92": {"tested_on": "HOP-92"}, "CCRF-CEM": {"tested_on": "CCRF-CEM"}, "OVCAR-8": {"tested_on": "OVCAR-8"}, "MDA-MB-435": {"tested_on": "MDA-MB-435"}, "SK-MEL-2": {"tested_on": "SK-MEL-2"}, "HL-60": {"tested_on": "HL-60"}, "NCI/ADR-RES": {"tested_on": "NCI/ADR-RES"}, "MOLT-4": {"tested_on": "MOLT-4"}, "Malme-3M": {"tested_on": "Malme-3M"}, "SW-620": {"tested_on": "SW-620"}, "SK-OV-3": {"tested_on": "SK-OV-3"}, "SN12C": {"tested_on": "SN12C"}, "HCT-15": {"tested_on": "HCT-15"}, "Hs-578T": {"tested_on": "Hs-578T"}, "SF-295": {"tested_on": "SF-295"}, "OVCAR-5": {"tested_on": "OVCAR-5"}, "NCI-H23": {"tested_on": "NCI-H23"}, "SK-MEL-28": {"tested_on": "SK-MEL-28"}}, "note": "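Values below derive from 48-hour exposures of cells grown in 96-well plates, with endpoints linearly interpolated between the two concentrations bracketing the appropriate inhibition level. GI50 marks 50% less growth.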 The source made the active and inactive calls. Cut-off read from the data, not from the text of the source: active = GI50 up to about 1.1 µM and inactive = higher.", "data": [{"smiles": "Cc1ccc(Nc2nc3ccccc3nc2NS(=O)(=O)c2ccc(N)cc2)cc1", "values": [{"measurement": "GI50", "setting": "UACC-62", "result": "36.1 µM (inactive)"}, {"measurement": "GI50", "setting": "SF-268", "result": "89.7 µM (inactive)"}, {"measurement": "GI50", "setting": "DU-145", "result": "97.9 µM (inactive)"}, {"measurement": "GI50", "setting": "786-0", "result": "82.4 µM (inactive)"}, {"measurement": "GI50", "setting": "COLO 205", "result": "45.8 µM (inactive)"}, {"measurement": "GI50", "setting": "RXF 393", "result": "30.8 µM (inactive)"}, {"measurement": "GI50", "setting": "UO-31", "result": "21.5 µM (inactive)"}, {"measurement": "GI50", "setting": "UACC-257", "result": "> 100 µM (inactive)"}, {"measurement": "GI50", "setting": "MDA-MB-231", "result": "> 100 µM (inactive)"}, {"measurement": "GI50", "setting": "ACHN", "result": "38.5 µM (inactive)"}, {"measurement": "GI50", "setting": "NCI-H460", "result": "4.89 µM (inactive)"}, {"measurement": "GI50", "setting": "BT-549", "result": "5.35 µM (inactive)"}, {"measurement": "GI50", "setting": "CAKI-1", "result": "59.2 µM (inactive)"}, {"measurement": "GI50", "setting": "HT-29", "result": "68.4 µM (inactive)"}, {"measurement": "GI50", "setting": "SK-MEL-5", "result": "39.2 µM (inactive)"}, {"measurement": "GI50", "setting": "K562", "result": "31.5 µM (inactive)"}, {"measurement": "GI50", "setting": "SNB-19", "result": "31.1 µM (inactive)"}, {"measurement": "GI50", "setting": "MDA-N", "result": "41.4 µM (inactive)"}, {"measurement": "GI50", "setting": "A549", "result": "34.5 µM (inactive)"}, {"measurement": "GI50", "setting": "PC-3", "result": "41.8 µM (inactive)"}, {"measurement": "GI50", "setting": "SNB-75", "result": "84.9 µM (inactive)"}, {"measurement": "GI50", "setting": "OVCAR-3", "result": "65 µM (inactive)"}, {"measurement": "GI50", "setting": "T47D", "result": "44 µM (inactive)"}, {"measurement": "GI50", "setting": "NCI-H226", "result": "78.7 µM (inactive)"}, {"measurement": "GI50", "setting": "LOX IMVI", "result": "70.3 µM (inactive)"}, {"measurement": "GI50", "setting": "HCT-116", "result": "37.3 µM (inactive)"}, {"measurement": "GI50", "setting": "SF-539", "result": "39.4 µM (inactive)"}, {"measurement": "GI50", "setting": "HOP-62", "result": "> 100 µM (inactive)"}, {"measurement": "GI50", "setting": "EKVX", "result": "> 100 µM (inactive)"}, {"measurement": "GI50", "setting": "MCF7", "result": "45.2 µM (inactive)"}, {"measurement": "GI50", "setting": "HCC 2998", "result": "3.64 µM (inactive)"}, {"measurement": "GI50", "setting": "TK-10", "result": "45.9 µM (inactive)"}, {"measurement": "GI50", "setting": "NCI-H522", "result": "25.2 µM (inactive)"}, {"measurement": "GI50", "setting": "KM12", "result": "23.5 µM (inactive)"}, {"measurement": "GI50", "setting": "RPMI-8226", "result": "23.6 µM (inactive)"}, {"measurement": "GI50", "setting": "IGROV-1", "result": "56.8 µM (inactive)"}, {"measurement": "GI50", "setting": "OVCAR-4", "result": "19.3 µM (inactive)"}, {"measurement": "GI50", "setting": "SR", "result": "20.7 µM (inactive)"}, {"measurement": "GI50", "setting": "M14", "result": "57.7 µM (inactive)"}, {"measurement": "GI50", "setting": "U-251", "result": "30.2 µM (inactive)"}, {"measurement": "GI50", "setting": "HOP-92", "result": "95.9 µM (inactive)"}, {"measurement": "GI50", "setting": "CCRF-CEM", "result": "18.4 µM (inactive)"}, {"measurement": "GI50", "setting": "OVCAR-8", "result": "81.8 µM (inactive)"}, {"measurement": "GI50", "setting": "MDA-MB-435", "result": "30.7 µM (inactive)"}, {"measurement": "GI50", "setting": "SK-MEL-2", "result": "29.4 µM (inactive)"}, {"measurement": "GI50", "setting": "HL-60", "result": "21.9 µM (inactive)"}, {"measurement": "GI50", "setting": "NCI/ADR-RES", "result": "61.8 µM (inactive)"}, {"measurement": "GI50", "setting": "MOLT-4", "result": "15.6 µM (inactive)"}, {"measurement": "GI50", "setting": "Malme-3M", "result": "91.2 µM (inactive)"}, {"measurement": "GI50", "setting": "SW-620", "result": "20.4 µM (inactive)"}, {"measurement": "GI50", "setting": "SK-OV-3", "result": "> 100 µM (inactive)"}, {"measurement": "GI50", "setting": "SN12C", "result": "48.3 µM (inactive)"}, {"measurement": "GI50", "setting": "HCT-15", "result": 49.8, "unit": "µM"}, {"measurement": "GI50", "setting": "Hs-578T", "result": "65.5 µM (inactive)"}, {"measurement": "GI50", "setting": "SF-295", "result": "46.7 µM (inactive)"}, {"measurement": "GI50", "setting": "OVCAR-5", "result": "> 100 µM (inactive)"}, {"measurement": "GI50", "setting": "NCI-H23", "result": "3.2 µM (inactive)"}, {"measurement": "GI50", "setting": "SK-MEL-28", "result": "33.4 µM (inactive)"}]}]}
